This is an account of results in ChEMBL document CHEMBL4033763, “Synthesis and Anti-HCV Activity of a Novel 2',3'-Dideoxy-2'-α-fluoro-2'-β-C-methyl Guanosine Phosphoramidate Prodrug” (ACS Med Chem Lett, 2017).

Series [1] in a line: Cytotoxicity against human HuH7 cells expressing HIV LTR promoter driven luciferase reporter gene in presence of 10% fetal bovine serum by lucifrease reporter gene assay. Type of series: cell-based, Huh-7. A general note: In a reporter assay the amount or activity of a reporter protein is the signal.
Series [2] relates to Hepatitis C virus. Kind of series: Antiviral activity against HCV 1b replicon infected in human HuH7 cells expressing HIV LTR promoter driven luciferase reporter gene assessed as reduction in viral RNA replication incubated for 48 hrs by lucifrease reporter gene assay. Type of series: functional, cell-based, Hepacivirus hominis. To be noted: genotype 1b, Huh-7, 48 h. On the technique in general: In antiviral work, replicon cells carry a viral genome segment that copies itself.

The test system of series [3] is Hepatitis C virus. The experiment in a line: Antiviral activity against HCV 1a replicon infected in human HuH7 cells expressing HIV LTR promoter driven luciferase reporter gene assessed as reduction in viral RNA replication incubated for 48 hrs by lucifrease reporter gene assay. Format: functional, cell-based, Hepacivirus hominis. The conditions noted are these: subtype 1a, Huh-7, 48 h.

The test system of series [4] is Hepatitis C virus. The experiment in a line: Antiviral activity against HCV 2a replicon infected in human HuH7 cells expressing HIV LTR promoter driven luciferase reporter gene assessed as reduction in viral RNA replication incubated for 48 hrs by lucifrease reporter gene assay. Type of series: functional, cell-based, Hepacivirus hominis. To be noted: genotype 2a, Huh-7, 48 h.

The subject of series [5] is Hepatitis C virus. The experiment in a line: Antiviral activity against NS5B S282T mutant expressing HCV 1b replicon infected in human HuH7 cells expressing HIV LTR promoter driven luciferase reporter gene assessed as reduction in viral RNA replication incubated for 48 hrs by lucifrease reporter gene assay. Type of series: functional, cell-based, Hepacivirus hominis. The conditions noted are these: genotype 1b, Huh-7, 48 h.

The term CC50 denotes the concentration at which the toxic effect on the cells reaches its halfway point. For orientation: EC50 means the concentration at which the effect is half-maximal. As for `COc1nc(N)nc2c1ncn2[C@@H]1O[C@H](CO)C[C@@]1(C)F`, the CC50 in series [1] was > 100 µM. Further, in the series on Hepatitis C virus [2], the EC50 is > 100 µM.

Regarding `COc1nc(N)nc2c1ncn2[C@@H]1O[C@H](CO[P@@](=O)(N[C@@H](C)C(=O)OC2CCCC2)Oc2ccccc2)C[C@@]1(C)F`, in series [1], the CC50 was > 100 µM. Further, the EC50 in the series on Hepatitis C virus [2] came out at 0.58 µM; with Hepatitis C virus [3] it was 1.1 µM; in the series with Hepatitis C virus [4], 0.39 µM; with Hepatitis C virus [5] it was 0.81 µM.
